Patent US5036080A, “(D)-6-fluoro-2,3-dihydro-2',5-dioxo-spiro[4H-1-benzo pyran-4,4'-imidazolide]-2-carboxamide compounds” (Sanwa Kagaku Kenyusho Co., Ltd., priority 1988, dated 1991)

Columns and labels:
aldose reductase [1] = molecular target: T1, aldose reductase (Rattus norvegicus, UniProt P07943); test: Inhibition of aldose reductase activity (procedure of Kador and Sharpless); type: biochemical; conditions: water-soluble extracts of crystalline lenses from rats
T1 construct: water-soluble extracts of crystalline lenses extracted from tested rats; from tissue; host or cells: rat crystalline lens, water-soluble extract
Procedure: Using water-soluble extracts of crystalline lenses extracted from tested rats, the inhibition of these compounds was determined.

aldose reductase [2] = conditions: cited from earlier work

| IC50 (aldose reductase [1]) | Structure (SMILES) | activity of inhibition to the aldose reductase in vitro and vivo tests, in comparison with other agents (in words) (aldose reductase [2]) |
| --- | --- | --- |
| 100 µM | Cc1ccc(S(=O)(=O)N2C(=O)NC3(C[C@H](C(N)=O)Oc4ccc(F)cc43)C2=O)cc1 (single isomer, unassigned) [Example 16-A, (d)-6-fluoro-1'-(p-toluenesulfonyl)-2,3-dihydro-2',5'-dioxo-spiro[4H-1-benzopyran-4,4'-imidazolidine]-2-carboxamide] |  |
| 100 µM | CC(C)(C)C(=O)OCN1C(=O)NC2(C[C@H](C(N)=O)Oc3ccc(F)cc32)C1=O (single isomer, unassigned) [Example 6, (d)-6-Fluoro-1'-pivaloyloxymethyl-2,3-dihydro-2',5'-dioxo-spiro[4H-1-benzopyran-4,4'-imidazolidine]-2-carboxamide] |  |
| 0.045 µM | COC(=O)N1C(=O)NC2(CC(C(N)=O)Oc3ccc(F)cc32)C1=O (single isomer, unassigned) [Example 3] |  |
|  | NC(=O)[C@H]1CC2(NC(=O)NC2=O)c2cc(F)ccc2O1 (single isomer, unassigned) [(d)-6-fluoro-2,3-dihydro-2',5'-dioxo-spiro[4H-1-benzopyran-4,4'-imidazolidine]-2-carboxamide] | remarkable activity of inhibition to the aldose reductase |
